Assay results published in patent publication US10059695B2, “Cot modulators and methods of use thereof” (Gilead Sciences, Inc., priority 2016, dated 2018).

How the values were obtained:
[1] = molecular target: Human Cot (Homo sapiens (Human), UniProt P41279); experiment: High Throughput Cot Biochemical Assay (KinEASE TR-FRET); details: recombinant human Cot catalytic domain, 400 μM ATP
Protocol: Example 24: High Throughput Cot Biochemical Assay
Human Cot enzyme activity was measured using KinEASE (Cisbio), a time-resolved fluorescence resonance energy transfer (TR-FRET) immunoassay. In this assay, Cot-catalyzes the phosporylation of a XL665-labeled peptide substrate. Europium conjugated […] specific antibody binds the resulting phosphorylated peptide. Formation of phosphorylated peptide is quantified by TR-FRET with Europium as the donor and XL665 the acceptor in a 2-step endpoint assay. Purified recombinant human Cot catalytic domain (30-397 amino acids) was purchased from Carna Biosciences. In brief, test compounds serially diluted in DMSO were delivered into Proxy white, low volume, 384 well plates using the Echo 550 acoustic liquid dispenser (Labcyte®). Cot enzyme and substrates were dispensed into assay plates using a Multi-Flo (Bio-Tek Instruments). The standard 5 μL reaction mixture contained 400 μM ATP, 1 μM STK3 peptide, 5 nM of Cot in reaction buffer (10 mM MOPS, pH 7.0, 0.02% NaN3, 0.5 mg/mL BSA, 10 mM MgOAc, 1 mM DTT, 0.025% NP-40, 1.5% glycerol) and 0.1% DMSO. After 2.5 hrs of incubation at room temperature, 5 μL of Stop and Detect Solution (1:200 Europium Cryptate labeled anti-phosphorylated peptide antibody solution and 125 nM strepavidin-XL665 Tracer in a 50 mM Hepes pH 7.0 detection buffer containing sufficient EDTA) was added. The plate was then further incubated for 120 minutes at room temperature and read using an Envision 2103 Multilabeled reader (PerkinElmer) with excitation/emission/FRET emission at 340 nm/615 nm/665 nm, respectively. Fluorescence intensities at 615 nm and 665 nm emission wavelengths were expressed as a ratio (665 nm/615 nm).

[2] = test system: TNFα; experiment: Cot Monocyte TNFα Cell Based Assay; details: LPS-stimulated cryopreserved human monocytes, TNFα by TR-FRET
Protocol: Example 23: Cot Monocyte TNFα Cell Based Assay
Cryopreserved human monocytes (Stem Cell Technologies) were thawed, diluted in RPMI with Glutamax (10 mM HEPES, 1× Pen-Strep, 55 μM β-mercaptoethanol, 1 mM Sodium pyruvate) media containing 10% FBS to 0.125×10^6 cells/ml and recovered at 37° C. for 2 hours. The cell suspension was then plated at a density of 5,000 cells/well onto black 384 well Greiner clear bottom plates. Plates were pre-spotted with test compounds and serially diluted in DMSO where 200 nL/well were delivered using the Echo 550 acoustic liquid dispenser (Labcyte®) for a final DMSO concentration of 0.5%. Plated cells were treated with compound for 1 hour at 37° C. Cells were then stimulated with 50 μg/ml of LPS (Sigma) excluding outside columns of plate used for unstimulated cell control wells. Cells were incubated for an additional 4 hours at 37° C. Cells were then spun out of the media and 5 μl of sample were taken and analyzed for total TNFα content using the TR-FRET Human TNFα detection system (CisBio). This system utilizes two labeled antibodies (cryptate and XL665) that bind to two different epitopes of the TNFα molecule and produce FRET signal proportional to the concentration of TNFα in the sample. Detection antibodies are mixed 50:50 and 5 μL were dispensed into each well. Plates were covered with clear seals and incubated at room temp overnight. The following morning plates were read using an Envision 2103 Multilabeled reader (PerkinElmer) with excitation/emission/FRET emission at 340 nm/615 nm/665 nm, respectively. Fluorescence intensities at 615 nm and 665 nm emission wavelengths were expressed as a ratio (665 nm/615 nm). Percent of control was calculated as follows: % Control=100×(RatioSample−Ratio0% stimulation)/(Ratio100% Stimulation−Ratio0% Stimulation) where unstimulated cells (0% stimulation) were the negative control and stimulated cells (100% stimulation) were used as the positive control.

Sequence of Human Cot (P41279 30-397): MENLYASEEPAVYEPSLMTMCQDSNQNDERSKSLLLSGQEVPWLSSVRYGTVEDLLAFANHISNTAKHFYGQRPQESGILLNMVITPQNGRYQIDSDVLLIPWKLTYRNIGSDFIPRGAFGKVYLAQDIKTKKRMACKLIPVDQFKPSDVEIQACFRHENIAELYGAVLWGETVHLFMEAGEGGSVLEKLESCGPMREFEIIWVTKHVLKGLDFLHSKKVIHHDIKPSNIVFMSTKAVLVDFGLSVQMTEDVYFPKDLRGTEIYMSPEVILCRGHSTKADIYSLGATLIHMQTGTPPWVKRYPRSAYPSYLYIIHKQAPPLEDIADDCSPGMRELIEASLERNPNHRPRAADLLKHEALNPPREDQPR

Row | Structure (SMILES) | IC50 [1] [nM] | EC50 [2] [nM]
1 | CC(C)(C)CNc1ncnc2c(C#N)cc(N[C@H](c3cn(C4(C(F)(F)F)CC4)nn3)c3cccc4ncsc34)cc12 [I-17, (S)-6-((benzo[d]thiazol-7-yl(1-(1-(trifluoromethyl)cyclopropyl)-1H-1,2,3-triazol-4-yl)methyl)amino)-4-(neopentylamino) quinazoline-8-carbonitrile] | 3.3 | 59
2 | CC(C)(C)CNc1ncnc2c(Br)cc(N[C@H](c3cn(C4(C(F)(F)F)CC4)nn3)c3cccc4ncsc34)cc12 [I-18, (S)-N^6-(benzo[d]thiazol-7-yl(1-(1-(trifluoromethyl)cyclopropyl)-1H-1,2,3-triazol-4-yl)methyl)-8-bromo-N^4-neopentylquinazoline-4,6-diamine] | 8 | 195
3 | CCN1CCC(n2cc([C@@H](Nc3cc(Cl)c4ncnc(Nc5ccc(F)c(Cl)c5)c4c3)c3ccccc3)nn2)CC1 [II-4, (S)-8-chloro-N^4-(3-chloro-4-fluorophenyl)-N^6-((1-(1-ethylpiperidin-4-yl)-1H-1,2,3-triazol-4-yl)(phenyl)methyl) quinazoline-4,6-diamine] | 5.9 | 254
4 | Fc1ccc(Nc2ncnc3ccc(N[C@@H](c4ccc(Cl)cc4)c4cn(C5CCN(C6COC6)CC5)nn4)cc23)cc1Cl [II-8, (S)-N4-(3-chloro-4-fluorophenyl)-N6-((4-chlorophenyl)(1-(1-(oxetan-3-yl)piperidin-4-yl)-1H-1,2,3-triazol-4-yl)methyl) quinazoline-4,6-diamine] | 318 | 1240
5 | Fc1ccc(Nc2ncnc3c(Cl)cc(N[C@@H](c4ccccc4)c4cn(C5CCNCC5)nn4)cc23)cc1Cl [II-9, (S)-8-chloro-N4-(3-chloro-4-fluorophenyl)-N6-(phenyl(1-(piperidin-4-yl)-1H-1,2,3-triazol-4-yl)methyl) quinazoline-4,6-diamine] | 8.3 | 337
6 | CCN1CCC(n2cc([C@@H](Nc3cc(Cl)c4ncnc(Nc5ccc(F)c(Cl)c5)c4c3)c3ccc(Cl)cc3)nn2)CC1 [II-10, (S)-8-chloro-N^4-(3-chloro-4-fluorophenyl)-N^6-((4-chlorophenyl)(1-(1-ethylpiperidin-4-yl)-1H-1,2,3-triazol-4-yl)methyl) quinazoline-4,6-diamine] | 17 | 527
7 | [2H][C@](Nc1ccc2ncnc(Nc3cnc(F)c(F)c3)c2c1)(c1ccc(F)cc1)c1cn(C2CC2)nn1 [II-11, (S)-N^6-((1-cyclopropyl-1H-1,2,3-triazol-4-yl)(4-fluorophenyl)methyl-d)-N^4-(5,6-difluoropyridin-3-yl)quinazoline-4,6-diamine] | 74 | 645

Results, then the compound that gave them:

Row | IC50 [1] [nM] | EC50 [2] [nM] | Structure (SMILES)
8 | 2.4 | 20 | [2H][C@@](Nc1cc(C#N)c2ncnc(NCC(C)(C)C)c2c1)(c1cn(C2CC2)nn1)c1ccccc1Cl [I-19, (S)-6-(((2-chlorophenyl)(1-cyclopropyl-1H-1,2,3-triazol-4-yl)methyl-d)amino)-4-(neopentylamino) quinazoline-8-carbonitrile]
9 | 3.3 | 35 | [2H][C@@](Nc1cc(C#N)c2ncnc(NCC(C)(C)C)c2c1)(c1cn(C2(C#N)CC2)nn1)c1ccccc1Cl [I-20, (S)-6-(((2-chlorophenyl)(1-(1-cyanocyclopropyl)-1H-1,2,3-triazol-4-yl)methyl-d)amino)-4-(neopentylamino) quinazoline-8-carbonitrile]
10 | 1.9 | 28 | Cc1nc(F)ccc1[C@H](Nc1cc(Cl)c2ncnc(NCC(C)(C)C)c2c1)c1cn(C2(C(F)F)CC2)nn1 [I-21, (S)-8-chloro-N^6-((1-(1-(difluoromethyl)cyclopropyl)-1H-1,2,3-triazol-4-yl)(6-fluoro-2-melhylpyridin-3-yl)methyl)-N^4-neopentylquinazoline-4,6-diamine]
11 | 1.7 | 36 | Cc1nc(F)ccc1[C@H](Nc1cc(C#N)c2ncnc(NCC(C)(C)C)c2c1)c1cn(C2(C(F)F)CC2)nn1 [I-22, (S)-6-(((1-(1-(difluoromethyl)cyclopropyl)-1H-1,2,3-triazol-4-yl)(6-fluoro-2-methylpyridin-3-yl)methyl)amino)-4-(neopentylamino) quinazoline-8-carbonitrile]
12 | 1.2 | 11.3 | Cn1ccc2c([C@H](Nc3cc(C#N)c4ncnc(NCC(C)(C)C)c4c3)c3cn(C4(C(F)F)CC4)nn3)cccc2c1=O [I-24, (S)-6-(((1-(1-(difluoromethyl)cyclopropyl)-1H-1,2,3-triazol-4-yl)(2-methyl-1-oxo-1,2-dihydroisoquinolin-5-yl)methyl)amino)-4-(neopentylamino) quinazoline-8-carbonitrile]
13 | 2.4 | 25.5 | Cn1ccc2c([C@H](Nc3cc(Cl)c4ncnc(NCC(C)(C)C)c4c3)c3cn(C4(C(F)F)CC4)nn3)cccc2c1=O [I-25, (S)-5-(((8-chloro-4-(neopentylamino)quinazolin-6-yl)amino)(1-(1-(difluoromethyl)cyclopropyl)-1H-1,2,3-triazol-4-yl)methyl)-2-methylisoquinolin-1(2H)-one]
14 | 1.7 | 12.1 | Cn1ccc2c([C@H](Nc3cc(Cl)c4ncnc(NCC(C)(C)C)c4c3)c3cn(C45CC(C4)C5)nn3)cccc2c1=O [I-27, (S)-5-((1-(bicyclo[1.1.1]pentan-1-yl)-1H-1,2,3-triazol-4-yl)((8-chloro-4-(neopentylamino)quinazolin-6-yl)amino)methyl)-2-methylisoquinolin-1(2H)-one]
